Measured values taken from patent publication US11957739B2, “Compositions and methods for treating cancer using RHOA dominant negative forms” (Dana-Farber Cancer Institute, Inc., priority 2017, dated 2024).

Assays:
CDH1-null cells = assay: Ectopic expression of RHOA dominant negative forms in CDH1-null cells; type: cell-based
Excerpt: (§1) Diffuse Gastric Cancer (DGC) is a highly lethal variant of gastric cancer, which is prone to early invasion and metastasis, and lacks effective molecularly targeted therapies. DGC initiation typically follows loss of tumor suppressor CDH1 which encodes the cellular adhesion protein E-cadherin. Reduction in and/or loss of E-cadherin (CDH1) is the key hallmark of invasive lobular breast cancer and loss-of-function mutations targeting CDH1 are present in 50%-60% of invasive lobular breast cancer and are believed to be an early event often observed in matching lobular carcinoma in situ (McCart Reed et al. (2015) Breast Cancer Res. 17:12). […] These findings indicate that RHOA dominant negative forms can be used as an effective therapy for DGC and lobular breast cancer as well as other cancers with the EMT phenotype.

cells with intact CDH1 = assay: Ectopic expression of RHOA dominant negative forms in cells with intact CDH1; type: cell-based
Excerpt: as §1

[1] = tested on: CDH1-null stomach organoids; assay: RHOA ectopic expression in isogenic stomach organoids after tamoxifen-induced E-cadherin loss; type: cell-based, mouse; details: ectopic expression by lentivirus; Mist1CreER, Cdh1F/F organoids treated with tamoxifen to induce E-cadherin loss
Experimental: Mist1CreER, Cdh1^F/F organoids were infected with plx307 lenti-EGFP/RHOA-WT/RHO-T19N virus, and the stably infected organoids were selected by adding puro for 1 week. The cells were then treated with or without tamoxifen to activate Cre to induce E-cadherin loss. The RHOA ectopic expression and E-Cadherin loss were validated both Western blot and Tomato/GFP color switch determinations.
Mist1-CreERT2, Cdh1flox/flox, Tomation/GFP mice, which carry conditional alleles with loxP sites flanking exon 2-3 of Cdh1, were kindly provided by Timothy C. Wang at Columbia University. Cre recombinase was activated by oral administration of tamoxifen (Sigma, T5648) TAM (1-5 mg/0.2 ml corn oil, as indicated). All animal studies and procedures were approved by the ethics committees at Dana-Farber Cancer Institute.
The protocol as previously described in Miyoshi et al. (2013) Nat. Prot. 8:2471-2482 was performed as follows: Euthanize mice using a chemical reagent, open the stomach longitudinally and roughly remove contents on the paper towel. Rinse the tissue with ice cold PBS in a 90 mm petri dish, then wash the tissue with […] ice cold PBS in a 50 ml centrifuge tube by vigorous shaking. After washing, place the tissue in a 35 mm petri dish and bring the dish to a biological hood and mince the tissue with fine scissors. […]

[2] = tested on: CDH1-null breast epithelial MCF10A cells; assay: Cell titer glo assay in MCF10A-CDH1-KO cells with Dox-inducible RHOA mutant virus; type: cell-based; details: Dox-inducible expression
Experimental: (§2) Isogenic MCF10A-CDH1-intact cells were infected with different constitutive RHOA mutant virus and the stably infected cells were selected by adding puro for 1 week. The cells were then plated in 96-well plates for analysis using a cell titer glo assay. The MCF10A-CDH1-K0 cells were infected with different Dox-inducible RHOA mutant viruses and the stably-infected cells were selected by adding puro for 1 week. The cells were then plated in 96-well plates with Dox induction for cell titer glo assay analysis.
(§3) Cell viability assay was performed by following the protocol of CellTiter-Glo® (Promega, Cat #G7570).

CDH1-intact MCF10A cells = assay: Cell titer glo assay in isogenic MCF10A-CDH1-intact cells with constitutive RHOA mutant virus; type: cell-based; details: constitutive expression
Experimental: as §2, §3

NUGC4 tumor = assay: NUGC4 xenograft tumor growth with Dox-induced mutant RHOA expression; type: in vivo; details: E-cadherin loss DGC cells in flank of nude mice; Dox food after 2 weeks; P<0.0001 Ctrl vs T19N
Experimental: (§4) Diffuse gastric cancer (DGC) NUGC4 cells were confirmed for total E-cadherin loss by Western blot analysis. The cells were then stably infected with Dox-inducible lenti-RHOA virus using puro selection. Three million NUGC4 cells were injected into the flank of nude mice. After 2 weeks, regular food was changed to food with Dox in order to induce mutant RHOA expression. N=3 mice for each group. P<0.0001: Ctrl-VS-T19N.
(§5) The 4-week-old male nude mice (BALB/cA-nu (nu/nu)) were injected subcutaneously at each flank with cells infected with dox inducible control or RHOA mutant virus. All animals were maintained and used in accordance with the guidelines of the Institutional Animal Care and Use Committee of Dana-Farber Cancer Institute.

MKN45 tumor = assay: MKN45 xenograft tumor growth with Dox-induced mutant RHOA expression; type: in vivo; details: E-cadherin loss diffuse adenocarcinoma cells in flank of nude mice; Dox food after 2 weeks; P<0.0001 Ctrl vs T19N
Experimental: as §4, with “The diffuse adenocarcinoma MKN45” for “Diffuse gastric cancer (DGC) NUGC4”, “MKN45” for “NUGC4”
as §5

Substance	cell-death in CDH1-null cells (CDH1-null cells)	proliferation of CDH1-null cells (CDH1-null cells)	inhibition of proliferation and induction of cell-death in cells with intact CDH1 (cells with intact CDH1)	killing of CDH1-null stomach organoids [1]	killing of CDH1-null MCF10A cells [2]	effect on CDH1-intact MCF10A cells (CDH1-intact MCF10A cells)	NUGC4 tumor growth (NUGC4 tumor)	MKN45 tumor growth (MKN45 tumor)
G17E: Human RHOA G17E dominant negative form (SEQ ID NO: 3), ectopically expressed	induction of cell-death	significant inhibition of proliferation	not in cells with intact CDH1	–	–	–	–	–
G17V: Human RHOA G17V dominant negative form (SEQ ID NO: 2), ectopically expressed	induction of cell-death	significant inhibition of proliferation	not in cells with intact CDH1	–	–	–	–	–
RHOA-T19N: Human RHOA T19N dominant negative form (SEQ ID NO: 1), ectopically expressed from lentivirus	induction of cell-death	significant inhibition of proliferation	not in cells with intact CDH1	specifically kills	specifically kills	spares	significantly inhibit	significantly inhibit
